Measurements as given in the supplement of paper PMC10307832.

Assays:
Experiment in all cases: relative viability (nuclei count vs DMSO), 5 days (fraction); higher = more cells survive
TPCA-1 + OSI-027 = compound: C1=CC(=CC=C1C2=CC(=C(S2)NC(=O)N)C(=O)N)F [TPCA-1] + COc1cccc2cc(-c3nc([C@H]4CC[C@H](C(=O)O)CC4)n4ncnc(N)c34)[nH]c12 [OSI-027] (partner 0.5 µM)
Summary of the method: (§1)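 Relative viability divides the nuclei count in treated wells by that in vehicle wells. Lung cancer cell lines were seeded in 1536-well plates, dosed by pin tool the next day, and fixed and stained after 5 days in one step with final 0.05% Triton X-100, 1% formaldehyde and 1 ug/ml Hoechst. Dosing was a single drug or a fixed anchor-drug dose plus five library-drug doses (not always all listed) in √10 steps, and values are medians of duplicate plates imaged at 4×.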

[1] = compound: C1/C(=C\C2=CC=CS2)/C(=O)/C(=C/C3=CC=CS3)/C1 + COc1cccc2cc(-c3nc([C@H]4CC[C@H](C(=O)O)CC4)n4ncnc(N)c34)[nH]c12 [OSI-027] (partner 0.5 µM)
Summary of the method: as §1

Lestaurtinib + Alpelisib = compound: C[C@]12O[C@H](C[C@]1(O)CO)n1c3ccccc3c3c4c(c5c6ccccc6n2c5c31)CNC4=O [Lestaurtinib] + Cc1nc(NC(=O)N2CCC[C@H]2C(N)=O)sc1-c1ccnc(C(C)(C)C(F)(F)F)c1 [Alpelisib] (partner 2 µM)
Summary of the method: as §1

[2] = compound: C1/C(=C\C2=CC=CS2)/C(=O)/C(=C/C3=CC=CS3)/C1 + O=C(CCCCCCC(=O)Nc1ccccc1)NO [Vorinostat] (partner 1 µM)
Summary of the method: as §1

Row | Cell Line | relative viability (TPCA-1 + OSI-027; first compound 0.04 µM) | relative viability (TPCA-1 + OSI-027; first compound 0.1265 µM) | relative viability (TPCA-1 + OSI-027; first compound 0.4 µM) | relative viability (TPCA-1 + OSI-027; first compound 1.265 µM) | relative viability (TPCA-1 + OSI-027; first compound 4 µM) | relative viability ([1]; first compound 0.2 µM) | relative viability ([1]; first compound 0.6325 µM) | relative viability ([1]; first compound 2 µM) | relative viability ([1]; first compound 6.325 µM) | relative viability ([1]; first compound 20 µM) | relative viability (Lestaurtinib + Alpelisib; first compound 0.005 µM) | relative viability (Lestaurtinib + Alpelisib; first compound 0.01581 µM) | relative viability (Lestaurtinib + Alpelisib; first compound 0.05 µM) | relative viability (Lestaurtinib + Alpelisib; first compound 0.1581 µM) | relative viability (Lestaurtinib + Alpelisib; first compound 0.5 µM) | relative viability ([2]; first compound 0.2 µM) | relative viability ([2]; first compound 0.6325 µM) | relative viability ([2]; first compound 2 µM) | relative viability ([2]; first compound 6.325 µM) | relative viability ([2]; first compound 20 µM)
1 | LC-2-ad | 0.971 | 0.753 | 0.813 | 0.744 | 0.407 | 0.817 | 0.941 | 0.984 | 0.708 | 0.785 | 0.961 | 0.829 | 0.354 | 0.227 | 0.139 | 0.696 | 0.745 | 0.711 | 0.647 | 0.64
2 | NCI-H2085 | 0.978 | 0.689 | 0.731 | 0.462 | 0.354 | 0.884 | 1.04 | 0.754 | 0.685 | 0.678 | 1.05 | 1.11 | 1.06 | 1.01 | 0.843 | 0.739 | 0.808 | 0.857 | 0.7 | 0.715
3 | NCI-H358 | 0.808 | 0.657 | 0.816 | 0.52 | 0.226 | 0.807 | 0.801 | 0.914 | – | 0.651 | 0.656 | 0.601 | 0.343 | 0.266 | 0.202 | 0.8 | 0.814 | 0.704 | 0.511 | 0.773
4 | H3255 | 0.674 | 0.578 | 0.592 | 0.463 | 0.483 | 0.585 | 0.589 | 0.541 | 0.568 | 0.566 | 0.686 | 0.739 | 0.541 | 0.385 | 0.296 | 0.756 | 0.856 | 0.427 | 0.758 | 0.875
5 | NCI-H2228 | 0.774 | 0.503 | 0.519 | 0.633 | 0.283 | 0.62 | 0.602 | 0.81 | 0.521 | 0.537 | 0.806 | 0.648 | 0.582 | 0.32 | 0.205 | 0.668 | 0.563 | 0.764 | 0.396 | 0.504
6 | CAL-12T | 0.678 | 0.614 | 0.664 | 0.523 | 0.185 | 0.64 | 0.886 | 0.709 | 0.335 | 0.547 | 1.12 | 1.3 | 1.19 | 0.502 | 0.385 | 0.724 | 0.91 | 0.648 | 0.77 | 0.788
7 | A-427 | 0.528 | 0.359 | 0.546 | 0.332 | 0.195 | 0.481 | 0.465 | 0.491 | 0.445 | 0.442 | 1.14 | 1.16 | 0.952 | 0.571 | 0.4 | 0.884 | 0.838 | 0.855 | 0.828 | 0.89
8 | HARA | 0.811 | 0.454 | 0.627 | 0.355 | 0.131 | 0.525 | 0.437 | 0.502 | 0.379 | 0.57 | 0.769 | 0.825 | 0.639 | 0.487 | 0.176 | 0.722 | 0.498 | 0.641 | 0.485 | 0.458
9 | NCI-H1793 | 0.233 | – | 0.275 | 0.285 | 0.139 | 0.333 | 0.303 | 0.322 | 0.202 | 0.31 | 0.874 | 0.761 | 0.588 | 0.546 | 0.494 | 1.02 | 0.753 | 0.892 | 0.654 | 0.734
10 | NCI-H2009 | 0.773 | 0.647 | 0.623 | 0.406 | 0.327 | 0.622 | 0.755 | 0.707 | 0.557 | 0.607 | 1.27 | 1.12 | 0.971 | 1.05 | 0.673 | 0.721 | 0.733 | 0.729 | – | 0.68
11 | ABC-1 | 0.592 | 0.515 | 0.62 | 0.475 | 0.293 | 0.645 | 0.583 | 0.647 | 0.426 | 0.498 | 1.06 | 1.02 | 0.845 | 0.658 | 0.262 | 1.17 | 0.964 | 1.5 | 0.724 | 1.24
12 | NCI-H322M | 0.567 | 0.534 | 0.564 | 0.581 | 0.382 | 0.559 | 0.658 | 0.652 | 0.564 | 0.516 | 0.853 | 0.789 | 0.508 | 0.325 | 0.405 | 0.902 | 0.892 | 1.03 | 0.865 | 0.917
13 | LXF-289 | 0.86 | 0.674 | 0.763 | 0.603 | 0.347 | 0.869 | 0.811 | 0.852 | 0.696 | 0.729 | 1.05 | 1.09 | 0.695 | 0.91 | 0.178 | 0.821 | 0.829 | 0.772 | 0.732 | 0.724
14 | HCC-827 | 0.793 | 0.782 | 0.729 | 0.706 | 0.503 | 0.813 | 0.767 | 0.809 | 0.737 | 0.695 | 0.948 | 0.905 | 0.862 | 0.585 | 0.311 | 0.999 | 0.897 | 0.908 | 0.764 | 0.822
15 | EMC-BAC-2 | 0.383 | 0.38 | 0.45 | 0.221 | 0.265 | 0.411 | 0.383 | 0.432 | 0.337 | 0.389 | 0.786 | 0.76 | 0.541 | 0.398 | 0.216 | 0.351 | 0.473 | 0.453 | 0.455 | 0.489
16 | NCI-H520 | 0.302 | 0.234 | 0.19 | 0.231 | 0.243 | 0.265 | 0.269 | 0.295 | 0.306 | 0.244 | 1.05 | 0.993 | 0.764 | 0.481 | 0.274 | 0.767 | 0.787 | 0.733 | – | 0.72
17 | NCI-H1755 | 0.755 | 0.621 | 0.804 | 0.539 | 0.496 | 0.787 | 0.709 | 0.79 | 0.683 | 0.759 | 1 | 0.927 | 0.571 | 0.349 | 0.202 | 0.725 | 0.857 | 0.745 | 0.777 | 0.716
18 | NCI-H1993 | 0.544 | 0.524 | 0.521 | 0.536 | 0.556 | 0.627 | 0.54 | 0.585 | 0.447 | 0.523 | 0.788 | 0.677 | 0.691 | 0.591 | 0.583 | 0.729 | 0.701 | 0.972 | 0.702 | 0.561
19 | NCI-H23 | 0.599 | 0.574 | 0.514 | 0.429 | 0.149 | 0.689 | 0.683 | 0.717 | 0.572 | 0.579 | 0.666 | 0.552 | 0.571 | 0.565 | 0.236 | 0.662 | 0.628 | 0.702 | 0.564 | 0.591
20 | NCI-H1437 | 0.888 | 0.89 | 0.908 | 0.921 | 0.652 | 0.866 | 0.782 | 0.889 | 0.88 | 0.834 | 0.958 | 1.11 | 1.01 | 0.757 | 0.461 | 0.91 | 0.853 | 0.837 | 0.701 | 0.866
21 | SK-MES-1 | 0.589 | 0.567 | 0.558 | 0.319 | 0.211 | 0.598 | 0.689 | 0.627 | 0.55 | 0.616 | 0.862 | 0.337 | 0.332 | 0.302 | 0.229 | 1.18 | 1.13 | 1.1 | 0.985 | 1.11
22 | NCI-H2405 | 0.673 | 0.6 | 0.65 | 0.36 | 0.629 | 0.619 | 0.633 | 0.705 | 0.497 | 0.624 | 0.842 | 0.643 | 0.488 | 0.367 | 0.258 | 0.991 | 1.02 | 1.08 | 0.876 | 1.14
23 | NCI-H2023 | 0.552 | 0.335 | 0.364 | 0.32 | 0.187 | 0.394 | 0.469 | 0.425 | 0.304 | 0.364 | 0.674 | 0.616 | 0.536 | 0.488 | 0.384 | 0.722 | 0.67 | 0.727 | 0.582 | 0.539
24 | NCI-H838 | 0.427 | 0.353 | 0.391 | 0.389 | 0.299 | 0.412 | 0.38 | 0.409 | 0.491 | 0.365 | 1.06 | 1.05 | 0.9 | 0.576 | 0.183 | 0.731 | 0.709 | 0.767 | 0.596 | 0.657
25 | NCI-H661 | 0.734 | 0.665 | 0.749 | 0.607 | 0.39 | 0.766 | 0.753 | 0.736 | 0.664 | 0.735 | 0.618 | 0.953 | 0.495 | 0.477 | 0.406 | 0.845 | 0.825 | 0.756 | 0.638 | 0.778
26 | NCI-H1734 | 0.822 | 0.477 | 0.656 | 0.745 | 0.33 | 0.584 | 0.668 | 0.741 | 0.519 | 0.593 | 0.732 | 0.689 | 0.569 | 0.377 | 0.304 | 0.82 | 0.875 | 0.837 | 0.745 | 0.865
27 | NCI-H596 | 0.717 | 0.584 | 0.678 | 0.787 | 0.389 | 0.76 | 0.781 | 1.01 | 0.699 | 0.794 | 0.409 | 0.484 | 0.464 | 0.624 | 0.432 | 0.532 | 0.469 | 0.609 | 0.612 | 0.727
